What all share (assay): Method 1: intracellular Ca2+ release (FLIPR, Calcium 5) in recombinant CHO-K1 cells
Holding throughout (format): cell-based

Assay [1] concerns the target T1, human S1PR5 receptor (Homo sapiens, UniProt Q9H228).
T1 construct: host or cells: CHO-K1
The settings on record: agonist potency, determined with method 1 (symbols A-D); read-out: S1P5 EC50 range. The method, boiled down: (§1)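 CHO-K1 cells co-expressing the receptor, aequorin and Gq/i5 were loaded with Calcium 5 dye for 1 h at 37 °C, adapted 45 min to RT, then given serially diluted compound in HBSS/20 mmol/L Hepes/2.5 mmol/L probenecid/0.1% BSA, pH 7.4. FLIPR fluorescence was read; EC50 came from nonlinear fits normalized to phospho-fingolimod.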

In assay [2] the target is T2, human S1PR4 receptor (Homo sapiens, UniProt O95977).
T2 construct: host or cells: CHO-K1
T2 sequence (O95977 1-384): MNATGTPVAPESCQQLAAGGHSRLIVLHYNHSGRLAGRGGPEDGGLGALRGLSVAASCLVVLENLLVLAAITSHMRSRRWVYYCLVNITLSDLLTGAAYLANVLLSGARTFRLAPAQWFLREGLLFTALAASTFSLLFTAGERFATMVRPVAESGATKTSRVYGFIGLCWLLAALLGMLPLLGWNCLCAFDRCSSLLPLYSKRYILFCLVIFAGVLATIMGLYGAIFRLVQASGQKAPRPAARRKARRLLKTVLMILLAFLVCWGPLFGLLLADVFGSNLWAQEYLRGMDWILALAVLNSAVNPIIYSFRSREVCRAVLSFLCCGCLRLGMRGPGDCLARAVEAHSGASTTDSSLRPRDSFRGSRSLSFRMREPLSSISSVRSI
The settings on record: (1): determined with method 1; read-out: S1P4 EC50. The method in brief: as §1

Assay [3] addresses T3, human S1PR3 receptor (Homo sapiens, UniProt Q99500).
T3 construct: host or cells: CHO-K1
The settings on record: (1): determined with method 1; read-out: S1P3 EC50. The method in brief:
as §1

In assay [4] the target is T4, human S1PR1 receptor (Homo sapiens, UniProt P21453).
T4 construct: host or cells: CHO-K1
T4 sequence (P21453 whole entry): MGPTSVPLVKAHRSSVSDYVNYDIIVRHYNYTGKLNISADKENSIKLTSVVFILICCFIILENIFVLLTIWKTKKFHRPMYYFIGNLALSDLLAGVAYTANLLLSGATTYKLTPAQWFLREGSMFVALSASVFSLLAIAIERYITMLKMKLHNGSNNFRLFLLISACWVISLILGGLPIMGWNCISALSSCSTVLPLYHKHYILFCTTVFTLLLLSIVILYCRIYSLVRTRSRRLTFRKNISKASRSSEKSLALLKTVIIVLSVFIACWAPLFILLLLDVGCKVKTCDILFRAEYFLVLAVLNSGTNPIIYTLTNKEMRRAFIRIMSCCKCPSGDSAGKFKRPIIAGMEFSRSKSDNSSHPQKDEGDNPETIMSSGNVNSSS
The conditions noted are these: (1): determined with method 1; read-out: S1P1 EC50. The method in brief:
as §1

pEC50: −log10 of the molar value. Counter-ions that a name gives are not always drawn.

T1 sequence (Q9H228 whole entry): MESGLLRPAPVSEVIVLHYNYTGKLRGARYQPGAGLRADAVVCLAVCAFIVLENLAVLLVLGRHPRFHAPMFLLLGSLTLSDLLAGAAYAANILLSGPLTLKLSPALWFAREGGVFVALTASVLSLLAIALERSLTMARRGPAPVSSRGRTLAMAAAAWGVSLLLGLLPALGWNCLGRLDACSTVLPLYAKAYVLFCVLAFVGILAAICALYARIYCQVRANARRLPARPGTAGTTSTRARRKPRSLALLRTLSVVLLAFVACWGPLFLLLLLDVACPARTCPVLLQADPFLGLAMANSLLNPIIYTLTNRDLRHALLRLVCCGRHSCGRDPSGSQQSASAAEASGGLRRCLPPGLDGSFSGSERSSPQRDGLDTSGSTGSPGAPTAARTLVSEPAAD
T3 sequence (Q99500 whole entry): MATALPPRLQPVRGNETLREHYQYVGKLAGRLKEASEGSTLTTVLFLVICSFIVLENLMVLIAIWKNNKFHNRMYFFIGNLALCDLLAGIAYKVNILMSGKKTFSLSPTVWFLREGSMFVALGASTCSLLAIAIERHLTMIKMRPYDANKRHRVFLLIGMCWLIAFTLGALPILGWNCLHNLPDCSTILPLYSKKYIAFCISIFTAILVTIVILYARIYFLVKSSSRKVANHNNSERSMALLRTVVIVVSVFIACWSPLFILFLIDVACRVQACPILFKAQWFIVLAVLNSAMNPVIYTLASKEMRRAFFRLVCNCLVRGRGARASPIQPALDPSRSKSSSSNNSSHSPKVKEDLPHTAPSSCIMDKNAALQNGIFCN

For the compound `CSc1ccc(COc2ccc(-c3ncc4c(n3)CCN(CC(C)CC(=O)O)C4)cc2)cc1` (centres unmarked) [Compound 257, 3-methyl-4-[2-[4-[(4-methylsulfanylphenyl)methoxy]phenyl]-7,8-dihydro-5H-pyrido[4,3-d]pyrimidin-6-yl]butanoic acid 2,2,2-trifluoroacetic acid salt], the pEC50 in assay [1] was 7.00 to 8.00; in assay [2], under 6.00; in assay [3], under 6.00; in assay [4], under 6.00.

For the compound `CC(CC(=O)O)CN1CCc2nc(-c3ccc(OCc4ccccc4C(F)(F)F)cc3F)ncc2C1` (centres unmarked) [Compound 260, 4-[2-[2-fluoro-4-[[2-(trifluoromethyl)phenyl]methoxy]phenyl]-7,8-dihydro-5H-pyrido[4,3-d]pyrimidin-6-yl]-3-methyl-butanoic acid 2,2,2-trifluoroacetic acid salt], the pEC50 in assay [1] is 7.00 to 8.00; in assay [2], under 6.00; in assay [3] it was under 6.00; in assay [4] it was under 6.00.

Take `CC(CCC(=O)O)N1CCc2nc(-c3ccc(OCc4ccccc4)cc3)ncc2C1` (centres unmarked) [Compound 64, 4-(2-(4-(benzyloxy)phenyl)-7,8-dihydropyrido[4,3-d]pyrimidin-6(5H)-yl)pentanoic acid]: the pEC50 is over 8.00 in assay [1], under 6.00 in assay [2], under 6.00 in assay [3] and under 6.00 in assay [4].

`CC(CN1CCc2nc(-c3ccc(OCc4cc(Cl)cc(Cl)c4)cc3)ncc2C1)C(=O)O` (single isomer, unassigned) [Compound 20, 3-(2-(4-((3,5-dichlorobenzyl)oxy)phenyl)-7,8-dihydropyrido[4,3-d]pyrimidin-6(5H)-yl)-2-methylpropanoic acid]: the pEC50 in assay [1] was 7.00 to 8.00; in assay [2], under 6.00; in assay [3], under 6.00; in assay [4] it was under 6.00.

With `CC(CN1CCc2nc(-c3ccc(OCc4cc(Cl)cc(Cl)c4)cc3)ncc2C1)C(=O)O` (single isomer, unassigned) [Compound 19, 3-(2-(4-((3,5-dichlorobenzyl)oxy)phenyl)-7,8-dihydropyrido[4,3-d]pyrimidin-6(5H)-yl)-2-methylpropanoic acid], the pEC50 in assay [1] was over 8.00; in assay [2] it was under 6.00; in assay [3], under 6.00; in assay [4], under 6.00.

With `CC(CC(=O)O)CN1CCc2nc(-c3ccc(OCc4cccc(F)c4F)cc3)ncc2C1` (centres unmarked) [Compound 226, 4-[2-[4-[(2,3-difluorophenyl)methoxy]phenyl]-7,8-dihydro-5H-pyrido[4,3-d]pyrimidin-6-yl]-3-methyl-butanoic acid 2,2,2-trifluoroacetic acid salt], the pEC50 in assay [1] is over 8.00; in assay [2] it was under 6.00; in assay [3] it was under 6.00; in assay [4], over 6.00.

Consider `Cc1cccc(COc2ccc(-c3ncc4c(n3)CCN(CC(C)CC(=O)O)C4)c(F)c2)c1C` (centres unmarked) [Compound 231, 4-[2-[4-[(2,3-dimethylphenyl)methoxy]-2-fluoro-phenyl]-7,8-dihydro-5H-pyrido[4,3-d]pyrimidin-6-yl]-3-methyl-butanoic acid 2,2,2-trifluoroacetic acid salt], for which the pEC50 in assay [1] is over 8.00; in assay [2], under 6.00; in assay [3], under 6.00; in assay [4], under 6.00.

As to `O=C(O)CCN1CCc2cc(-c3ccc(OCc4ccc(Cl)cc4)cc3)ncc2C1` [Compound 174, 3-(6-((4(4-chlorobenzyl)oxy)phenyl)-3,4-dihydro-2,7-naphthyridin-2(1H)-yl)propanoic acid], the pEC50 in assay [1] is over 8.00; in assay [2], under 6.00; in assay [3], under 6.00; in assay [4], under 6.00.

`Cc1ccc(COc2ccc(-c3ncc4c(n3)CCN(CC(C)CC(=O)O)C4)cc2)cc1C(F)(F)F` (centres unmarked) [Compound 247, 3-methyl-4-[2-[4-[[4-methyl-3-(trifluoromethyl)phenyl]methoxy]phenyl]-7,8-dihydro-5H-pyrido[4,3-d]pyrimidin-6-yl]butanoic acid 2,2,2-trifluoroacetic acid salt]: the pEC50 in assay [1] is over 8.00; in assay [2] it was under 6.00; in assay [3] it was under 6.00; in assay [4], under 6.00.

`O=C(O)CCN1CCc2cc(OCc3c(Cl)cccc3Cl)ncc2C1` [Compound 219, 3-(6-((2,6-dichlorobenzyl)oxy)-3,4-dihydro-2,7-naphthyridin-2(1H)-yl)propanoic acid hydrochloride]: the negative-log EC50 (pEC50) in assay [1] was 6.00 to 7.00; in assay [2], under 6.00; in assay [3], under 6.00; in assay [4], under 6.00.

`CC(CC(=O)O)CN1CCc2nc(-c3ccc(C(F)(F)Cc4ccc(Cl)cc4)cc3)ncc2C1` (centres unmarked) [Compound 265, 4-(2-(4-(2-(4-chlorophenyl)-1,1-difluoroethyl)phenyl)-7,8-dihydropyrido[4,3-d]pyrimidin-6(5H)-yl)-3-methylbutanoic acid]: the pEC50 in assay [1] was 7.00 to 8.00; in assay [2], under 6.00; in assay [3], under 6.00; in assay [4], under 6.00.

For `CC(CCN1CCc2nc(-c3ccc(OCc4ccccc4)cc3)c(F)cc2C1)C(=O)O` (centres unmarked) [Compound 180, 4-(2-(4-(benzyloxy)phenyl)-3-fluoro-7,8-dihydro-1,6-naphthyridin-6(5H)-yl)-2-methylbutanoic acid], the pEC50 is over 8.00 in assay [1], under 6.00 in assay [2], under 6.00 in assay [3] and over 6.00 in assay [4].

Turning to `Cc1cccc(COc2ccc(-c3ncc4c(n3)CCN(CC(C)CC(=O)O)C4)cc2)c1` (centres unmarked) [Compound 230, 3-methyl-4-(2-(4-((3-methylbenzyl)oxy)phenyl)-7,8-dihydropyrido[4,3-d]pyrimidin-6(5H)-yl)butanoic acid], the negative-log EC50 (pEC50) was over 8.00 in assay [1], under 6.00 in assay [2], under 6.00 in assay [3] and over 6.00 in assay [4].

Consider `O=C(O)C1CC(N2CCc3nc(C#Cc4cc(F)cc(F)c4)ccc3C2)C1` (centres unmarked) [Compound 127, 3-(2-((3,5-difluorophenyl)ethynyl)-7,8-dihydro-1,6-naphthyridin-6(5H)-yl)cyclobutanecarboxylic acid], for which the pEC50 in assay [1] was 5.00 to 6.00; in assay [2] it was under 6.00; in assay [3] it was under 6.00; in assay [4] it was under 6.00.

As to `O=C(O)C1CC(N2CCc3nc(C#Cc4ccc(Cl)cc4)ccc3C2)C1` (centres unmarked) [Compound 120, 3-(2-((4-chlorophenyl)ethynyl)-7,8-dihydro-1,6-naphthyridin-6(5H)-yl)cyclobutanecarboxylic acid], the pEC50 in assay [1] is 5.00 to 6.00; in assay [2], under 6.00; in assay [3], under 6.00; in assay [4] it was under 6.00.

For the compound `Cc1cc(COc2ccc(-c3ccc4c(n3)CCN(CCC(=O)O)C4)cc2)cc(OC(F)(F)F)c1` [Compound 160, 3-(2-(4-((3-trifluoromethoxy-5-(methyl)benzyl)oxy)phenyl)-7,8-dihydro-1,6-naphthyridin-6(5H)-yl)propanoic acid], the pEC50 in assay [1] was 7.00 to 8.00; in assay [2] it was under 6.00; in assay [3], under 6.00; in assay [4], under 6.00.

With `Cc1ccc(C(F)(F)F)cc1COc1ccc(-c2ncc3c(n2)CCN(CCC(=O)O)C3)cc1` [Compound 88, 3-(2-(4-((2-methyl-5-(trifluoromethyl)benzyl)oxy)phenyl)-7,8-dihydropyrido[4,3-d]pyrimidin-6(5H)-yl)propanoic acid], the pEC50 in assay [1] was over 8.00; in assay [2], under 6.00; in assay [3], under 6.00; in assay [4], under 6.00.

`O=C(O)CCN1CCc2nc(-c3ccc(OCc4ccc(OC(F)(F)F)cc4)cc3)ncc2C1` [Compound 85, 3-(2-(4-((4-(trifluoromethoxy)benzyl)oxy)phenyl)-7,8-dihydropyrido[4,3-d]pyrimidin-6(5H)-yl)propanoic acid]: the pEC50 was over 8.00 in assay [1], under 6.00 in assay [2], under 6.00 in assay [3] and under 6.00 in assay [4].

Take `Cc1ccccc1COc1ccc(-c2ncc3c(n2)CCN(CC(C)CC(=O)O)C3)cc1` (centres unmarked) [Compound 234, 3-methyl-4-[2-[4-(o-tolylmethoxy)phenyl]-7,8-dihydro-5H-pyrido[4,3-d]pyrimidin-6-yl]butanoic acid 2,2,2-trifluoroacetic acid salt]: the pEC50 in assay [1] is over 8.00; in assay [2], under 6.00; in assay [3], under 6.00; in assay [4] it was over 6.00.

Take `CC(CC(=O)O)CN1CCc2nc(-c3ccc(OCc4ccccc4F)cc3)ncc2C1` (centres unmarked) [Compound 235, 4-[2-[4-[(2-fluorophenyl)methoxy]phenyl]-7,8-dihydro-5H-pyrido[4,3-d]pyrimidin-6-yl]-3-methyl-butanoic acid 2,2,2-trifluoroacetic acid salt]: the pEC50 in assay [1] is over 8.00; in assay [2], under 6.00; in assay [3], under 6.00; in assay [4] it was over 6.00.

For the origin of these results see patent US10556907B2 (AbbVie Inc., priority 2015, dated 2020).
